Entries after “also recorded” stand apart in the source; their conditions may differ.
Experiments:
Wistar-Kyoto (WKY) rats = test: Cued fear conditioning / extinction training, freezing behavior in WKY rats; format: in vivo, rat; details: for Freezing behavior, direction of change vs. vehicle: WKY rats, across days 1 and 3
From the text: Inbred Wistar-Kyoto (WKY) rats have been used as models of several behavioral deficits, such as stress vulnerability and sleep disturbance.
Fear memories are crucial in psychiatric conditions such as PTSD. Pavlovian fear conditioning (FC) test is a widely-used behavioral assay in rodents for measurement of aversive learning and memory through learned associations between aversive stimulus (a mild electric shock) and a specific cue (e.g., a tone; cued conditioning) or a context in which electric shock had occurred (contextual conditioning). Once the association is established, the conditioned stimulus (CS, i.e. tone or context) can induce fear response in a similar manner to unconditioned stimulus (US, i.e. electric shock). However, if CS repeatedly presents without combination of US, extinction occurs in normal animals. Fear extinction is usually regarded as a new inhibitory learning after repeated or prolonged CS presentations without the US, which causes a gradual decrease in the magnitude and/or frequency of the conditioned response (i.e. freezing response in FC test). Deficits in such inhibitory learning can be regarded as a hallmark of clinical PTSD.
Young adult (about 7 weeks of age), male WKY and Wistar rats purchased from Charles River Laboratory were used in this study. Upon receipt, animals were group-housed (2 per cage) and acclimated for at least 7 days. All rats were examined, handled, and weighed prior to initiation of the study to assure adequate health and suitability. During the course of the study, 12/12 light/dark cycles were maintained. The room temperature was maintained between 20 and 23° C. with a relative humidity maintained around 50%. Rats were randomly assigned to each treatment group. All testing was conducted during the animals' light cycle.
When combined with DSC, the combinations were given in a cocktail 30 minute prior to extinction test • D-CPP-ene (5 mg/kg) was be dissolved in acidified saline and administered s.c 30 min prior to extinction test at a dose volume of 2 ml/kg • Lurasidone (Lur, 0.2 mg/kg was dissolved in saline and administered IP 30 min prior to test at a dose volume of 1 ml/kg • Quetiapine (QTP, 10 mg/kg) was dissolved in acidified saline and administered s.c 30 min prior to test at a dose volume of 1 ml/kg
The experiment was conducted in the fear conditioning system manufactured by Coulbourn Instruments (PA, USA). Animal's body movements are captured with a video system and the FreezeFrame software, and freezing is analyzed automatically by the FreezeView software (Coulbourn Instruments, PA, USA).
Fear Conditioning Training: Animals were exposed to 5 CS-US pairings of a 10 sec tone (70 dB conditioned stimulus/CS) co-terminating with a brief electric shock (0.5 mA for 1.0 sec unconditioned stimulus/US). The 5 CS-US pairings are separated by a 60 sec interval with the first CS at 120 s. The rats stage in boxes for one minute after the last shock before being moved out.
Extinction training: Extinction training was conducted twice at 24 and 72 hr post FC training. A cued FC extinction paradigm was applied. The extinction training was conducted in the “cylinder”, a changed context which is different from the boxes of FC training. The extinction training lasted 32-40 min, including 8-10 identical bins. Each bin includes a 2 min tone period followed by a 2 min no-tone period (inter-trial interval, ITI).
Percent freezing during bins 7-8 of extinction trainings (24 hr and 72 hr) was used to evaluate effectiveness of treatment. Data were analyzed by […] analyses of variance (ANOVA), with treatment/group and extinction stage (cues or bins) set as factors. Fisher LSD method was used in Post hoc comparisons if applicable.

mice = test: Marble burying test; format: in vivo; details: for Effects on marble burying relative to racemic mirtazapine: Example 4, FIG. 2
[1] = Pharmacokinetics of 250 mg PO D-cycloserine every 12 hrs in healthy volunteers (Park et al. 2015); format: in vivo, humans; details: 250 mg PO every 12 hrs; corresponding to AUC over 12 hrs
NMDAR [2] = target: T1, NMDAR (Homo sapiens, UniProt Q05586); test: D-cycloserine plasma concentrations linked to agonist, antagonist and toxic effects; summary of human PK studies; format: in vivo, humans; details: consistent finding of human PK studies
T1 construct: endogenous in cells; host or cells: human subjects in vivo (neuronal receptors); no isolated protein
Description: D-cycloserine is an anti-tuberculosis medication that also acts as a partial glycine-site […] (aka mixed agonist/antagonist). […] Plasma concentrations associated with primarily agonist effects are primarily […]. Plasma concentrations associated with antagonist effects are >25 μg/mi. Increased liability for toxicity is observed at plasma levels >35 μg/mL.
Accordingly, the daily dose for producing such plasma levels will necessarily be above 500 mg/day, as described above.

[3] = Pharmacokinetics of D-cycloserine in humans after 500 mg (Zhu et al. 2001); format: in vivo; details: corresponding to AUC over 24 hr
From the text: Critical parameters include maximum (peak) concentration achieved (Cmax), time to maximum concentration (Tmax) and area under the curve (AUC) during the dosing interval.

NMDAR [4] = target: T1, NMDAR; details: cited from earlier work
[5] = Pharmacokinetics of DCS in rodent, plasma level by UPLC/MS/MS; format: in vivo, C57BL/6J mice
From the text: Male C57BL/6J mice (8 weeks old) from Jackson Laboratories (Bar Harbor, Maine) were used. Upon receipt, mice were assigned unique identification numbers (tail marked) and were group housed in OPTImice cages. All animals were acclimated to the colony room for 1 week prior to testing. During the period of acclimation, animals were examined on a regular basis, handled, and weighed to assure adequate health and suitability. Animals were maintained on a 12/12 light/dark cycle. The room temperature was maintained between 20 and 23° C. with a relative humidity maintained between 30% and 70%. Chow and water were provided ad libitum for the duration of the study. All testing was performed during the animal's light cycle phase.
Sample were collected at 30, 60 and 120 min from separate animals. Mean plasma levels across the 30-120 min timepoint was used for analysis. At each time point, trunk blood was collected in tubes containing K2EDTA and kept on ice for short-term storage. Within 15 minutes of blood collection, tubes were centrifuged for 10 minutes at 10,000 RPM in a refrigerated centrifuge. The supernatant (plasma) was extracted and transferred to pre-labeled tubes on dry ice. Samples were stored at approximately −80° C. until analyses.
Analysis of DCS in plasma and brain samples were performed utilizing an UPLC/MS/MS system consisted of an Acquity UPLC chromatographic system and a Quattro Premier XE triple quad mass spectrometer, both from Waters.
The range of standards utilized was 1.0-1000 ng/mL. Plasma samples were prepared in the same manner but with 10 μL of sample and 90 μL of the internal standard mix to provide 100 μL of sample after dilution for triplicate analysis.
The internal standards D9-Ach (parent 154.95DA to fragment 86.7DA) was incorporated into the samples to correct for sample matrix and instrument variability providing a more robust data set.

C57BL/6J mice = test: Open field (OF) test, locomotor activity; details: for Locomotor activity vs. vehicle: 30 min after administration; for Locomotor activity, Mean distance travelled over 30 min: C57BL/6J mice

## O=C1[C@@H]2[C@H]3CC[C@H](C3)[C@@H]2C(=O)N1C[C@@H]1CCCC[C@H]1CN1CCN(c2nsc3ccccc23)CC1 [Lurasidone]
Wistar-Kyoto (WKY) rats; lurasidone 0.2 mg/kg IP 30 min prior to test
  Percentage WKY animals showing freezing behavior >85% of the time in response to cue stimuli across day 1 and 3 following fear conditioning, Mean: 0.531

## CN1CCN2c3ncccc3Cc3ccccc3[C@H]2C1 [S-mirtazapine, S-(+)-mirtazapine]
mice
  Effects on marble burying relative to racemic mirtazapine: significantly more robust
mice; Example 4, S-mirtazapine 1, 2.5, 5, 10 mg/kg IP
  Number of marbles buried compared to vehicle: significantly reduced the number of marbles buried
mice; Example 4, S-mirtazapine with or without DCS
  Marble burying in the absence and presence of DCS: floor level effects

## CN1CCN2c3ncccc3Cc3ccccc3C2C1 (racemic) [Mirtazapine]
mice; Example 3, mirtazapine 5.5 mg/kg IP 30 min prior to test
  Number of marbles buried compared to vehicle: significantly reduced the number of marbles buried
mice; Example 4, mirtazapine 1, 2.5, 5 and 10 mg/kg IP
  Number of marbles buried compared to vehicle: significantly reduced the number of marbles buried

## CN[C@H]1CC[C@@H](c2ccc(Cl)c(Cl)c2)c2ccccc21 [Sertraline]
Wistar-Kyoto (WKY) rats; sertraline 20 mg/kg IP 30 min prior to test
  Percentage WKY animals showing freezing behavior >85% of the time in response to cue stimuli across day 1 and 3 following fear conditioning, Mean: 0.156
Wistar-Kyoto (WKY) rats; sertraline 20 mg/kg IP
  Freezing behavior, direction of change vs. vehicle: Decrease
Wistar-Kyoto (WKY) rats; sertraline 20 mg/kg IP, listed as sertraline
  Freezing behavior, direction of change vs. vehicle: significant reduction in freezing behavior

## OCCOCCN1CCN(C2=Nc3ccccc3Sc3ccccc32)CC1 [QTP, Quetiapine]
Wistar-Kyoto (WKY) rats; quetiapine 10 mg/kg s.c. 30 min prior to test
  Percentage WKY animals showing freezing behavior >85% of the time in response to cue stimuli across day 1 and 3 following fear conditioning, Mean: 0.625
Wistar-Kyoto (WKY) rats; quetiapine 10 mg/kg s.c.
  Freezing behavior, direction of change vs. vehicle: Increase
Wistar-Kyoto (WKY) rats; quetiapine 10 mg/kg s.c., listed as quetiapine
  Freezing behavior, direction of change vs. vehicle: tended to increase freezing behavior

## O=C(O)[C@H]1CN(C/C=C/P(=O)(O)O)CCN1 [DCPPene, D-(E)-4-(3-phosphonoprop-2-enyl)piperazine-2-carboxylic acid]
Wistar-Kyoto (WKY) rats; D-CPP-ene 5 mg/kg s.c. 30 min prior to extinction test
  Percentage WKY animals showing freezing behavior >85% of the time in response to cue stimuli across day 1 and 3 following fear conditioning, Mean: 0.625
Wistar-Kyoto (WKY) rats; D-CPP-ene 5 mg/kg s.c.
  Freezing behavior, direction of change vs. vehicle: Increase
Wistar-Kyoto (WKY) rats; D-CPP-ene 5 mg/kg s.c., listed as D-CPPene
  Freezing behavior, direction of change vs. vehicle: tended to increase freezing behavior

## CN1CCN2c3ncccc3Cc3ccccc3[C@@H]2C1 [R-mirtazapine, R-(−)-mirtazapine]
mice
  Effects on marble burying relative to racemic mirtazapine: less robust
mice; Example 4, R-mirtazapine 10 mg/kg IP
  Number of marbles buried compared to vehicle: significantly reduced the number of marbles buried
mice; Example 4, R-mirtazapine 1, 2.5 and 5 mg/kg IP
  Number of marbles buried compared to vehicle: did not affect this measure
mice; R- vs S-isomer
  Relative effects of R- and S-isomers of mirtazapine on marble burying (FIG. 2 legend): greater effects

## Fc1ccc([C@@H]2CCNC[C@H]2COc2ccc3c(c2)OCO3)cc1 [Paroxetine]
mice; Example 3, paroxetine 5 mg/kg IP 30 min prior to test
  Number of marbles buried compared to vehicle: significantly reduced the number of marbles buried
mice; Example 4, paroxetine 5 mg/kg IP
  Number of marbles buried compared to vehicle: significantly reduced the number of marbles buried

## N[C@@H]1CON=C1O [D-cycloserine, 3-Isoxazolidinone, 4-amino-, (4R)-(9CI)]
[1]
  mean plasma level: 20. 2 microgram/mL
NMDAR [2]
  Sustained plasma level following 500 mg administration: below 25 microgram/mL
mice; Example 3, D-cycloserine 30 mg/kg IP 30 min prior to test
  Number of marbles buried compared to vehicle: did not affect this measure
mice; Example 3, D-cycloserine 300 mg/kg IP 30 min prior to test
  Number of marbles buried compared to vehicle: did not affect this measure
Wistar-Kyoto (WKY) rats; DCS 30 mg/kg IP 30 min prior to extinction test
  Percentage WKY animals showing freezing behavior >85% of the time in response to cue stimuli across day 1 and 3 following fear conditioning, Mean: 0.281
Wistar-Kyoto (WKY) rats; DCS 30 mg/kg IP
  Freezing behavior, direction of change vs. vehicle: no significant effect on freezing behavior
Wistar-Kyoto (WKY) rats; DCS 300 mg/kg IP 30 min prior to extinction test
  Percentage WKY animals showing freezing behavior >85% of the time in response to cue stimuli across day 1 and 3 following fear conditioning, Mean: 0.113
Wistar-Kyoto (WKY) rats; DCS 300 mg/kg IP, listed as DCS
  Freezing behavior, direction of change vs. vehicle: significant reduction in freezing behavior; also recorded: Decrease
Wistar-Kyoto (WKY) rats; DCS 300 mg/kg added to lurasidone 0.2 mg/kg, p=0.09
  Effect of high-dose DCS on freezing when added to lurasidone: tended to decrease freezing
Wistar-Kyoto (WKY) rats; DCS 300 mg/kg with quetiapine 10 mg/kg, p=0.3
  Effect of high-dose DCS on freezing in combination with quetiapine: without statistical effect
[3]
  median sustained plasma level: 8.9 microgram/mL
NMDAR [4]; NMDAR glycine site
  Plasma concentrations associated with antagonist effects: > 25 μg/mi
NMDAR [4]; in vivo
  Plasma levels at which increased liability for toxicity is observed: > 35000 ng/mL
[5]; 30 mg/kg IP, mice, mean across 30-120 min, difference from 25 not significant (p=0.2)
  DCS plasma level: below 25 microgram/mL
[5]; 100 mg/kg and above IP, mice, mean across 30-120 min, p<0.01
  DCS plasma level: > 25 microgram/mL
[5]; 300 mg/kg DCS as in prior examples
  DCS plasma level: > 25 micrograms/mL
C57BL/6J mice; D-cycloserine 30 mg/kg, p=0.5
  Locomotor activity vs. vehicle: not significantly affected
C57BL/6J mice; D-cycloserine 300 mg/kg, p<0.001
  Locomotor activity vs. vehicle: significantly increased
C57BL/6J mice; D-cycloserine 1000 mg/kg, p<0.001
  Locomotor activity vs. vehicle: significantly increased
C57BL/6J mice; DCS 30 mg/kg IP
  Locomotor activity, Mean distance travelled over 30 min: 4432.1
C57BL/6J mice; DCS 300 mg/kg IP
  Locomotor activity, Mean distance travelled over 30 min: 7588.5

Source: patent publication US11969431B2, “Formulations for treatment of post-traumatic stress disorder” (Glytech LLC, priority 2017, dated 2024)
